Assay results taken from US9278962B2 (Cytokinetics, Inc., priority 2011, dated 2016).

Tested on: rabbit skeletal myofibrils (approximately 90% fast fibers)
Experiment: Activation of fast skeletal myofibrils (PUMA coupled-enzyme ATPase assay, AC1.4)
Assay type: biochemical
Details: concentration at which the compound increased enzymatic activity by 40%, calcium at pCa25

SMILES	Mean AC1.4 (Table 3)	also measured
Cc1cc(C(N)=O)sc1-c1nnc(NC[C@]2(c3ncccc3F)C[C@H](F)C2)s1 [5-(5-((3-fluoro-1-(3-fluoropyridin-2-yl)cyclobutyl)methylamino)-1,3,4-thiadiazol-2-yl)-4-methylthiophene-2-carboxamide]	B (B=1-10 uM)	
N#Cc1ccc(-c2nnc(NC[C@]3(c4ncccc4F)C[C@H](F)C3)s2)s1 [5-(5-((3-fluoro-1-(3-fluoropyridin-2-yl)cyclobutyl)methylamino)-1,3,4-thiadiazol-2-yl)thiophene-2-carbonitrile]	D (D=>20 uM)	
NC(=O)c1ccc(-c2nnc(NC[C@]3(c4ncccc4F)C[C@H](F)C3)s2)s1 [5-(5-((3-fluoro-1-(3-fluoropyridin-2-yl)cyclobutyl)methylamino)-1,3,4-thiadiazol-2-yl)thiophene-2-carboxamide]	B (B=1-10 uM)	
Fc1cccnc1[C@]1(CNc2nnc(-c3cc(Br)ccc3Cl)s2)C[C@H](F)C1 [5-(5-bromo-2-chlorophenyl)-N-(((cis)-3-fluoro-1-(3-fluoropyridin-2-yl)cyclobutyl)methyl)-1,3,4-thiadiazol-2-amine]	A (A=<1 uM)	
Fc1cccnc1[C@]1(CNc2nnc(-c3cc(Br)ccc3Cl)s2)C[C@@H](F)C1 [5-(5-bromo-2-chlorophenyl)-N-(((trans)-3-fluoro-1-(3-fluoropyridin-2-yl)cyclobutyl)methyl)-1,3,4-thiadiazol-2-amine]	A (A=<1 uM)	
Cn1nc(NC2(c3ncccc3F)CCC2)nc1-c1cc(Br)ccc1F [5-(5-bromo-2-fluorophenyl)-N-(1-(3-fluoropyridin-2-yl)cyclobutyl)-1-methyl-1H-1,2,4-triazol-3-amine]		Mean AC1.4 (Table 5): D (D=>20 uM)
Cn1nc(-c2cc(Br)ccc2F)nc1NC1(c2ncccc2F)CCC1 [5-(5-bromo-2-fluorophenyl)-N-(1-(3-fluoropyridin-2-yl)cyclobutyl)-2-methyl-2H-1,2,4-triazol-3-amine]		Mean AC1.4 (Table 5): D (D=>20 uM)
Fc1ccc(Br)cc1-c1nnc(NC2(c3ncccc3F)CCC2)[nH]1 [5-(5-bromo-2-fluorophenyl)-N-(1-(3-fluoropyridin-2-yl)cyclobutyl)-4H-1,2,4-triazol-3-amine]		Mean AC1.4 (Table 5): D (D=>20 uM)
CC(C)(Nc1nnc(-c2cc(Br)ccc2F)o1)c1ccc(F)cc1 [5-(5-bromo-2-fluorophenyl)-N-(2-(4-fluorophenyl)propan-2-yl)-1,3,4-oxadiazol-2-amine]		Mean AC1.4 (Table 5): B (B=1-10 uM)
Fc1ccc(Br)cc1-c1nnc(NCC2(c3ncccc3F)CCC2)s1 [5-(5-bromo-2-fluorophenyl)-N-((1-(3-fluoropyridin-2-yl)cyclobutyl)methyl)-1,3,4-thiadiazol-2-amine]	A (A=<1 uM)	
Fc1ccc(Br)cc1-c1nnc(NC[C@]2(c3ncccc3F)C[C@@H](F)C2)s1 [5-(5-bromo-2-fluorophenyl)-N-(((cis)-3-fluoro-1-(3-fluoropyridin-2-yl)cyclobutyl)methyl)-1,3,4-thiadiazol-2-amine]	A (A=<1 uM)	
Fc1ccc(Br)cc1-c1nnc(NC[C@]2(c3ncccc3F)C[C@H](F)C2)s1 [5-(5-bromo-2-fluorophenyl)-N-(((trans)-3-fluoro-1-(3-fluoropyridin-2-yl)cyclobutyl)methyl)-1,3,4-thiadiazol-2-amine]	A (A=<1 uM)	
Cc1cc(Br)sc1-c1nnc(NC[C@]2(c3ncccc3F)C[C@H](F)C2)s1 [5-(5-bromo-3-methylthiophen-2-yl)-N-((3-fluoro-1-(3-fluoropyridin-2-yl)cyclobutyl)methyl)-1,3,4-thiadiazol-2-amine]	B (B=1-10 uM)	
Fc1cccnc1[C@]1(CNc2nnc(-c3ccc(Br)s3)s2)C[C@H](F)C1 [5-(5-bromothiophen-2-yl)-N-(((cis)-3-fluoro-1-(3-fluoropyridin-2-yl)cyclobutyl)methyl)-1,3,4-thiadiazol-2-amine]	C (C=10-20 uM)	
Fc1cccnc1[C@]1(CNc2nnc(-c3ccc(Br)s3)s2)C[C@@H](F)C1 [5-(5-bromothiophen-2-yl)-N-(((trans)-3-fluoro-1-(3-fluoropyridin-2-yl)cyclobutyl)methyl)-1,3,4-thiadiazol-2-amine]	B (B=1-10 uM)	
CC(C)(CNc1nc(-c2ccc(O)nc2)ns1)c1ccc(F)cc1 [5-(5-{[2-(4-fluorophenyl)-2-methylpropyl]amino}-1,2,4-thiadiazol-3-yl)pyridin-2-ol]		Mean AC1.4 (Table 2): B (B=1-10 uM)
CC(C)(CNc1nc(-c2ccc(C(N)=O)nc2)ns1)c1ccc(F)cc1 [5-(5-{[2-(4-fluorophenyl)-2-methylpropyl]amino}-1,2,4-thiadiazol-3-yl)pyridine-2-carboxamide]		Mean AC1.4 (Table 2): A (A=<1 uM)
CC(C)(CNc1nc(-c2cncc(C#N)c2)ns1)c1ccc(F)cc1 [5-(5-{[2-(4-fluorophenyl)-2-methylpropyl]amino}-1,2,4-thiadiazol-3-yl)pyridine-3-carbonitrile]		Mean AC1.4 (Table 2): B (B=1-10 uM)
CC(C)(CNc1nc(-c2cncc(C(N)=O)c2)ns1)c1ccc(F)cc1 [5-(5-{[2-(4-fluorophenyl)-2-methylpropyl]amino}-1,2,4-thiadiazol-3-yl)pyridine-3-carboxamide]		Mean AC1.4 (Table 2): A (A=<1 uM)
C[C@H](CNc1nc(-c2ccc(O)nc2)ns1)c1ccc(F)cc1 [5-(5-{[(2S)-2-(4-fluorophenyl)propyl]amino}-1,2,4-thiadiazol-3-yl)pyridin-2-ol]		Mean AC1.4 (Table 2): B (B=1-10 uM)
C[C@H](CNc1nc(-c2cncc(C#N)c2)ns1)c1ccc(F)cc1 [5-(5-{[(2S)-2-(4-fluorophenyl)propyl]amino}-1,2,4-thiadiazol-3-yl)pyridine-3-carbonitrile]		Mean AC1.4 (Table 2): C (C=10-20 uM)
C[C@H](CNc1nc(-c2cncc(C(N)=O)c2)ns1)c1ccc(F)cc1 [5-(5-{[(2S)-2-(4-fluorophenyl)propyl]amino}-1,2,4-thiadiazol-3-yl)pyridine-3-carboxamide]		Mean AC1.4 (Table 2): B (B=1-10 uM)
Fc1cccnc1C1(CNc2nnc(Cc3ccccc3)s2)CCC1 [5-benzyl-N-((1-(3-fluoropyridin-2-yl)cyclobutyl)methyl)-1,3,4-thiadiazol-2-amine]	D (D=>20 uM)	

Further lines, with some results ahead:

Mean AC1.4 (Table 3)	SMILES	also measured
A (A=<1 uM)	CC(C)(CNc1nnc(-c2cc(Br)ccc2F)s1)c1ncccc1F [5-(5-bromo-2-fluorophenyl)-N-(2-(3-fluoropyridin-2-yl)-2-methylpropyl)-1,3,4-thiadiazol-2-amine]	
B (B=1-10 uM)	CC(C)(Nc1nnc(-c2cc(Br)ccc2F)s1)c1ncccc1F [5-(5-bromo-2-fluorophenyl)-N-(2-(3-fluoropyridin-2-yl)propan-2-yl)-1,3,4-thiadiazol-2-amine]	
A (A=<1 uM)	Cc1ccc(Br)cc1-c1nnc(NC[C@]2(c3ncccc3F)C[C@@H](F)C2)s1 [5-(5-bromo-2-methylphenyl)-N-(((cis)-3-fluoro-1-(3-fluoropyridin-2-yl)cyclobutyl)methyl)-1,3,4-thiadiazol-2-amine]	
A (A=<1 uM)	Cc1ccc(Br)cc1-c1nnc(NC[C@]2(c3ncccc3F)C[C@H](F)C2)s1 [5-(5-bromo-2-methylphenyl)-N-(((trans)-3-fluoro-1-(3-fluoropyridin-2-yl)cyclobutyl)methyl)-1,3,4-thiadiazol-2-amine]	
A (A=<1 uM)	CCc1ccc(F)c(-c2nnc(NC[C@]3(c4ncccc4F)C[C@H](F)C3)s2)c1 [5-(5-ethyl-2-fluorophenyl)-N-((3-fluoro-1-(3-fluoropyridin-2-yl)cyclobutyl)methyl)-1,3,4-thiadiazol-2-amine]	
